The values below come from US9006244B2, “Liver X receptor modulators” (priority 2012, dated 2015).

A word on the Ki: it is the dissociation constant of the complex between target and ligand, obtained from inhibition or displacement. Low values mean higher affinity, high ones lower affinity. The term EC50 denotes the concentration giving half of the maximal effect.

Some results are limits rather than exact numbers.

The target of test [1] is LXRα ligand binding domain (LBD) (Homo sapiens (Human), UniProt Q13133). Briefly: LXR α radioligand binding assay (SPA, [3H]TO901317 competition). As to the method: (§1) Poly-lysine SPA beads (50 μg) were added to each well and the total volume was adjusted to 120 μL. The plates were shaken on an orbital shaker for 20 min and then allowed to settle for 10 more minutes at rt before a brief centrifugation at 2,000 rpm for 1 min.

The target of the next test is LXRα (Homo sapiens (Human), UniProt Q13133). Put plainly: LXR luciferase transcriptional reporter gene assay, Gal4-LXRα LBD in HEK293 cells. The format is cell-based. To be noted: pG5-Luc luciferase reporter, 16 h, read-out: LXRα CELL EC50. A general note: Reporter assays use an easily measured gene product as a stand-in for the process of interest.
The next test addresses LXRβ (Homo sapiens (Human), UniProt P55055). Put plainly: LXR luciferase transcriptional reporter gene assay, Gal4-LXRβ LBD in HEK293 cells. The format is cell-based. To be noted: pG5-Luc luciferase reporter, 16 h, read-out: LXRβ CELL EC50.
The target in test [2] is LXRβ ligand binding domain (LBD) (Homo sapiens (Human), UniProt P55055). Put plainly: LXR β radioligand binding assay (SPA, [3H]TO901317 competition). To be noted: for selectivity for the LXRβ subtype over the LXRα subtype: LXRβ versus LXRα, statement in the summary. How it is done: as §1
LXRβ ligand binding domain (LBD), sequence (P55055 222-460): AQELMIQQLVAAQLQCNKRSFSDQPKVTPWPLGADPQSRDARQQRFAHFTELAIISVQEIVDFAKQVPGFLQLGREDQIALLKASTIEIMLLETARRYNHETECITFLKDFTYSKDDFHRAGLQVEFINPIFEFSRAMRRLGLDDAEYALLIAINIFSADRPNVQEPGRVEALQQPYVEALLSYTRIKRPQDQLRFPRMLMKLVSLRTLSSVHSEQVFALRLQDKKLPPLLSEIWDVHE

LXRα, sequence (Q13133 209-447): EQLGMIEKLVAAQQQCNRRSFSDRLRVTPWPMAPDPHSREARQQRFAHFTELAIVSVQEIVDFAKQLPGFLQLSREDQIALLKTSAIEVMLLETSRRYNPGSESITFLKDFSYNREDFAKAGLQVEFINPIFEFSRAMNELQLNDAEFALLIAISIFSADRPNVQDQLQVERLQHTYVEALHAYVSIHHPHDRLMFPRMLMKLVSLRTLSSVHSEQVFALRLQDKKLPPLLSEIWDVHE
LXRα ligand binding domain (LBD), sequence (Q13133 209-447): as above
LXRβ, sequence (P55055 222-460): as the sequence (P55055 222-460) above

Consider `CC(C)[C@@H]1c2cc3cc(CO)c(S(C)(=O)=O)cc3n2CCN1c1nccc(C(F)(F)F)n1` (single isomer, unassigned) [Compound E4a, (1-isopropyl-7-(methylsulfonyl)-2-(4-(trifluoromethyl)pyrimidin-2-yl)-1,2,3,4-tetrahydropyrazino[1,2-a]indol-8-yl)methanol], for which the Ki in test [1] is 0.043 µM; in test [2], 0.004 µM. Also, the half-maximal effective concentration (EC50) was found to be 0.163 µM at LXRα and 0.01 µM at LXRβ. Moreover, the “selectivity for the LXRβ subtype over the LXRα subtype” value in test [2] was “selective for the LXRβ subtype over the LXRα subtype”.

As for `CC(C)[C@@H]1c2nc3cc(CO)c(S(C)(=O)=O)cc3n2CCN1c1nccc(C(F)(F)F)n1` (single isomer, unassigned) [Compound E2a], the inhibition constant (Ki) in test [1] worked out at 0.318 µM; in test [2], 0.02 µM. Further, the EC50 at LXRα amounted to 0.34 µM; on LXRβ, 0.013 µM. The “selectivity for the LXRβ subtype over the LXRα subtype” value in test [2] is “selective for the LXRβ subtype over the LXRα subtype”.

In test [1], `CC(C)[C@@H]1c2cc3ccc(S(C)(=O)=O)cc3n2CCN1c1nccc(C(F)(F)F)n1` (single isomer, unassigned) [Compound E3a, 1-isopropyl-7-(methylsulfonyl)-2-(4-(trifluoromethyl)pyrimidin-2-yl)-1,2,3,4-tetrahydropyrazino[1,2-a]indole] had an inhibition constant Ki of 0.398 µM. Also, the half-maximal effective concentration (EC50) at LXRα came out at 1.1 µM.

Take `CC(C)[C@H]1c2cc3cc(CO)c(S(C)(=O)=O)cc3n2CCN1c1nccc(C(F)(F)F)n1` (single isomer, unassigned) [Compound E4b, (1-isopropyl-7-(methylsulfonyl)-2-(4-(trifluoromethyl)pyrimidin-2-yl)-1,2,3,4-tetrahydropyrazino[1,2-a]indol-8-yl)methanol]: the inhibition constant Ki is greater than 3.33 µM in test [1] and 0.846 µM in test [2]. Moreover, the concentration for a half-maximal effect (EC50) on LXRα and on LXRβ was greater than 20 µM throughout.

The compound `CC(C)[C@H]1c2cc3ccc(S(C)(=O)=O)cc3n2CCN1c1nccc(C(F)(F)F)n1` (single isomer, unassigned) [Compound E3b, 1-isopropyl-7-(methylsulfonyl)-2-(4-(trifluoromethyl)pyrimidin-2-yl)-1,2,3,4-tetrahydropyrazino[1,2-a]indole] showed an inhibition constant (Ki) in test [1] greater than 3.33 µM. Further, at LXRα, the concentration for a half-maximal effect (EC50) was greater than 20 µM.

For `CC(C)C1c2nc3ccc(S(C)(=O)=O)cc3n2CCN1c1nccc(C(F)(F)F)n1` (centres unmarked) [Compound E1, 1-isopropyl-7-(methylsulfonyl)-2-(4-(trifluoromethyl)pyrimidin-2-yl)-1,2,3,4-tetrahydrobenzo[4,5]imidazo[1,2-a]pyrazine], the inhibitory constant (Ki) in test [1] was found to be 1.77 µM; in test [2], 0.256 µM. Further, the EC50 at LXRα came to 3.37 µM; at LXRβ, 0.313 µM.

Regarding `CC(C)[C@H]1c2nc3cc(CO)c(S(C)(=O)=O)cc3n2CCN1c1nccc(C(F)(F)F)n1` (single isomer, unassigned) [Compound E2b], the figures for the Ki in test [1] and in test [2] were greater than 3.33 µM and greater than 2.5 µM, respectively. Besides, the EC50 on LXRα amounted to 17.3 µM; at LXRβ it was 6.94 µM.
